This note sets out measurements from patent US20070219203A1, “Arylalkylamino-substituted quinazoline analogues” (Neurogen Corporation, priority 2004, published 2007).

Bounds are passed on as bounds.

The target of the assay is T1, human capsaicin receptor (Homo sapiens, UniProt Q8NER1).
T1 construct: expressed in transfected cells
The assay can be described thus: Calcium mobilization assay, antagonist activity (Example 6). The settings on record: Table I; 50% decrease in fluorescence response of cells expressing human capsaicin receptor exposed to capsaicin. In kind it is cell-based. On the procedure: A cDNA encoding full length human capsaicin receptor (SEQ ID NO:1, 2 or 3 of U.S. Pat. No. 6,482,611) is subcloned in the plasmid pBK-CMV (Stratagene, La Jolla, Calif.) for recombinant expression in mammalian cells.
Human embryonic kidney (HEK293) cells are transfected with the pBK-CMV expression construct encoding the full length human capsaicin receptor using standard methods. The transfected cells are selected for two weeks in media containing G418 (400 μg/ml) to obtain a pool of stably transfected cells. Independent clones are isolated from this pool by limiting dilution to obtain clonal stable cell lines for use in subsequent experiments.
Cells transfected with expression plasmids (as described in Example 4) and thereby expressing human capsaicin receptor are seeded and grown to 70-90% confluency in FALCON black-walled, clear-bottomed 96-well plates (#3904, BECTON-DICKINSON, Franklin Lakes, N.J.). The culture medium is emptied from the 96 well plates and […] calcium sensitive dye (Molecular Probes, Eugene, Oreg.) is added to each well (dye solution: 1 mg […], 440 μL DMSO and 440 μl 20% pluronic acid in DMSO, diluted 1:250 in Krebs-Ringer HEPES (KRH) buffer (25 mM HEPES, 5 mM KCl, 0.96 mM NaH2PO4, 1 mM MgSO4, 2 mM CaCl2, 5 mM glucose, 1 mM probenecid, pH 7.4), 50 μl diluted solution per well). Plates are covered with aluminum foil and incubated at 37° C. for 1-2 hours in an environment containing 5% CO2. After the incubation, the dye is emptied from the plates, and the cells are washed once with KRH buffer, and resuspended in KRH buffer.
To measure the ability of a test compound to agonize or antagonize a calcium mobilization response in cells expressing capsaicin receptors to capsaicin or other vanilloid agonist, the EC50 of the agonist capsaicin is first determined. An additional 20 μl of KRH buffer and 1 μl DMSO is added to each well of cells, prepared as described above. 100 μl capsaicin in KRH buffer is automatically transferred by the FLIPR instrument to each well. Capsaicin-induced calcium mobilization is monitored using either FLUOROSKAN ASCENT (Labsystems; Franklin, Mass.) or FLIPR (fluorometric imaging plate reader system; Molecular Devices, Sunnyvale, Calif.) instruments. Data obtained between 30 and 60 seconds after agonist application are used to generate an 8-point concentration response curve, with final capsaicin concentrations of 1 nM to 3 μM. KALEIDAGRAPH software (Synergy Software, Reading, Pa.) is used to fit the data to the equation: y=a*(1/(1+(b/x)^c)) to determine the 50% excitatory concentration (EC50) for the response. In this equation, y is the maximum fluorescence signal, x is the concentration of the agonist or antagonist (in this case, capsaicin), a is the Emax, b corresponds to the EC50 value and c is the Hill coefficient. Determination of Agonist Activity
Test compounds are dissolved in DMSO, diluted in 20 μl KRH buffer so that the final concentration of test compounds in the assay well is between 1 μM and 5 μM, and added to cells prepared as described above. The 96 well plates containing prepared cells and test compounds are incubated in the dark, at room temperature for 0.5 to 6 hours. It is important that the incubation not continue beyond 6 hours. Just prior to determining the fluorescence response, 100 μl capsaicin in KRH buffer at twice the EC50 concentration determined as described above is automatically added by the FLIPR instrument to each well of the 96 well plate for a final sample volume of 200 μl and a final capsaicin concentration equal to the EC50. The final concentration of test compounds in the assay wells is between 1 μM and 5 μM. […] The concentration of antagonist required to provide a 50% decrease, relative to the response observed in the presence of capsaicin and without antagonist, is the IC50 for the antagonist, and is preferably below 1 micromolar, 100 nanomolar, 10 nanomolar or 1 nanomolar.

T1 sequence (Q8NER1 whole entry): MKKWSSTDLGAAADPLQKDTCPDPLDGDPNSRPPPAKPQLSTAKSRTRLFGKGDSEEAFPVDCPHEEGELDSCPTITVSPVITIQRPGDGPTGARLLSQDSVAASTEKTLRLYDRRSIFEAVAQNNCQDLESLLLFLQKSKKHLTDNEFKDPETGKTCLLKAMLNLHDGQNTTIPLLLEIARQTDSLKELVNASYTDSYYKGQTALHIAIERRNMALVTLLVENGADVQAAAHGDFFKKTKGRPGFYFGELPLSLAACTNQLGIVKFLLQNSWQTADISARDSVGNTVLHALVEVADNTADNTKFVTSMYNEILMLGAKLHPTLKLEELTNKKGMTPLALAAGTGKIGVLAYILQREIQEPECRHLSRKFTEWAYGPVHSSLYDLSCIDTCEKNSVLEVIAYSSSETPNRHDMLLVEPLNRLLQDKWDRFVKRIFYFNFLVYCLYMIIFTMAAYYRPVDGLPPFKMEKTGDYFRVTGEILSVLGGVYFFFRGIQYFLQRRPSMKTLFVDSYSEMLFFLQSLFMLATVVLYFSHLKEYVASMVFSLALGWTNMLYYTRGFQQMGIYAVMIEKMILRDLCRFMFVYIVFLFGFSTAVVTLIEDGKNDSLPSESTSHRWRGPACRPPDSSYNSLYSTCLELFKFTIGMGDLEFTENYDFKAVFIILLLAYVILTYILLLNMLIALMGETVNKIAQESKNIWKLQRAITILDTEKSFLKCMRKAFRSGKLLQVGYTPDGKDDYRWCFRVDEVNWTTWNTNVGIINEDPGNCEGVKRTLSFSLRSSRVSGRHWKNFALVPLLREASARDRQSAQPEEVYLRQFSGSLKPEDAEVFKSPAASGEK

For `FC(F)(F)c1cccnc1-c1ccc2c(N[C@@H]3C[C@H]3c3ccccc3)ncnc2c1` [Compound 31, N-[(1R,2S)-2-phenylcyclopropyl]-7-[3-(trifluoromethyl)pyridin-2-yl]quinazolin-4-amine], the half-inhibitory concentration (IC50) (usually the midpoint of a concentration-inhibition curve) was ≤ 1 µM. To `Cc1nc(NCCc2ccccc2Cl)c2ccc(-c3ncccc3C)nc2n1` [Compound 32, N-[2-(2-chlorophenyl)ethyl]-2-methyl-7-(3-methylpyridin-2-yl)pyrido[2,3-d]pyrimidin-4-amine] belongs ≤ 1 µM. In the case of `CC(C)COCc1nc(NCCc2ccccc2Cl)c2ccc(-c3ncccc3C(F)(F)F)nc2n1` [Compound 33, N-[2-(2-chlorophenyl)ethyl]-2-(isobutoxymethyl)-7-[3-(trifluoromethyl)pyridin-2-yl]pyrido[2,3-d]pyrimidin-4-amine], the IC50 was ≤ 1 µM.

`CC(C)COCc1nc(NCCc2cccc(Cl)c2)c2ccc(-c3ncccc3C(F)(F)F)nc2n1` [Compound 34, N-[2-(3-chlorophenyl)ethyl]-2-(isobutoxymethyl)-7-[3-(trifluoromethyl)pyridin-2-yl]pyrido[2,3-d]pyrimidin-4-amine]: the IC50 was ≤ 1 µM.

Take `CC(C)COCc1nc(NCCc2ccc(Cl)cc2)c2ccc(-c3ncccc3C(F)(F)F)nc2n1` [Compound 35, N-[2-(4-chlorophenyl)ethyl]-2-(isobutoxymethyl)-7-[3-(trifluoromethyl)pyridin-2-yl]pyrido[2,3-d]pyrimidin-4-amine]: the IC50 was ≤ 1 µM. For the molecule `CC(C)COCc1nc(NCCc2cccc(F)c2)c2ccc(-c3ncccc3C(F)(F)F)nc2n1` [Compound 36, N-[2-(3-fluorophenyl)ethyl]-2-(isobutoxymethyl)-7-[3-(trifluoromethyl)pyridin-2-yl]pyrido[2,3-d]pyrimidin-4-amine], the IC50 was ≤ 1 µM. As for `CC(C)COCc1nc(NCCc2ccc(F)cc2)c2ccc(-c3ncccc3C(F)(F)F)nc2n1` [Compound 37, N-[2-(4-fluorophenyl)ethyl]-2-(isobutoxymethyl)-7-[3-(trifluoromethyl)pyridin-2-yl]pyrido[2,3-d]pyrimidin-4-amine], the IC50 was ≤ 1 µM.

Take `CC(C)COCc1nc(NCCc2ccccc2C(F)(F)F)c2ccc(-c3ncccc3C(F)(F)F)nc2n1` [Compound 38, 2-(isobutoxymethyl)-N-{2-[2-(trifluoromethyl)phenyl]ethyl}-7-[3-(trifluoromethyl)pyridin-2-yl]pyrido[2,3-d]pyrimidin-4-amine]: the IC50 was ≤ 1 µM.

For the molecule `CC(C)COCc1nc(NCCc2cccc(C(F)(F)F)c2)c2ccc(-c3ncccc3C(F)(F)F)nc2n1` [Compound 39, 2-(isobutoxymethyl)-N-{2-[3-(trifluoromethyl)phenyl]ethYl}-7-[3-(trifluoromethyl)pyridin-2-yl]pyrido[2,3-d]pyrimidin-4-amine], the IC50 was ≤ 1 µM.

Turning to `CC(C)COCc1nc(NCCc2ccc(C(F)(F)F)cc2)c2ccc(-c3ncccc3C(F)(F)F)nc2n1` [Compound 40, 2-(isobutoxymethyl)-N-{2-[4-(trifluoromethyl)phenyl]ethyl}-7-[3-(trifluoromethyl)pyridin-2-yl]pyrido[2,3-d]pyrimidin-4-amine], the half-maximal inhibitory concentration (IC50) was ≤ 1 µM. Take `COc1ccccc1CCNc1nc(COCC(C)C)nc2nc(-c3ncccc3C(F)(F)F)ccc12` [Compound 41, 2-(isobutoxymethyl)-N-[2-(2-methoxyphenyl)ethyl]-7-[3-(trifluoromethyl)pyridin-2-yl]pyrido[2,3-d]pyrimidin-4-amine]: the half-inhibitory concentration (IC50) is ≤ 1 µM. Consider `COc1cccc(CCNc2nc(COCC(C)C)nc3nc(-c4ncccc4C(F)(F)F)ccc23)c1` [Compound 42, 2-(isobutoxymethyl)-N-[2-(3-methoxyphenyl)ethyl]-7-[3-(trifluoromethyl)pyridin-2-yl]pyrido[2,3-d]pyrimidin-4-amine], for which the IC50 is ≤ 1 µM. For the molecule `COc1ccc(CCNc2nc(COCC(C)C)nc3nc(-c4ncccc4C(F)(F)F)ccc23)cc1` [Compound 43, 2-(isobutoxymethyl)-N-[2-(4-methoxyphenyl)ethyl]-7-[3-(trifluoromethyl)pyridin-2-yl]pyrido[2,3-d]pyrimidin-4-amine], the IC50 is ≤ 1 µM. Turning to `CC(C)COCc1nc(NCCc2ccccc2F)c2ccc(-c3ncccc3Cl)nc2n1` [Compound 44, 7-(3-chloropyridin-2-yl)-N-[2-(2-fluorophenyl)ethyl]-2-(isobutoxymethyl)pyrido[2,3-d]pyrimidin-4-amine], the IC50 was ≤ 1 µM. Take `CC(C)COCc1nc(NCCc2cccc(F)c2)c2ccc(-c3ncccc3Cl)nc2n1` [Compound 45]: the IC50 was ≤ 1 µM. `CC(C)COCc1nc(NCCc2ccc(F)cc2)c2ccc(-c3ncccc3Cl)nc2n1` [Compound 46, 7-(3-chloropyridin-2-yl)-N-[2-(4-fluorophenyl)ethyl]-2-(isobutoxymethyl)pyrido[2,3-d]pyrimidin-4-amine]: the IC50 was ≤ 1 µM.

For the molecule `CC(C)COCc1nc(NCCc2ccccc2Cl)c2ccc(-c3ncccc3Cl)nc2n1` [Compound 47, N-[2-(2-chlorophenyl)ethyl]-7-(3-chloropyridin-2-yl)-2-(isobutoxymethyl)pyrido[2,3-d]pyrimidin-4-amine], the IC50 is ≤ 1 µM. Take `CC(C)COCc1nc(NCCc2cccc(Cl)c2)c2ccc(-c3ncccc3Cl)nc2n1` [Compound 48, N-[2-(3-chlorophenyl)ethyl]-7-(3-chloropyridin-2-yl)-2-(isobutoxymethyl)pyrido[2,3-d]pyrimidin-4-amine]: the IC50 was ≤ 1 µM. Regarding `CC(C)COCc1nc(NCCc2ccc(Cl)cc2)c2ccc(-c3ncccc3Cl)nc2n1` [Compound 49, N-[2-(4-chlorophenyl)ethyl]-7-(3-chloropyridin-2-yl)-2-(isobutoxymethyl)pyrido[2,3-d]pyrimidin-4-amine], the IC50 is ≤ 1 µM. For `CC(C)COCc1nc(NCCc2ccccc2C(F)(F)F)c2ccc(-c3ncccc3Cl)nc2n1` [Compound 50, 7-(3-chloropyridin-2-yl)-2-(isobutoxymethyl)-N-{2-[2-(trifluoromethyl)phenyl]ethyl}pyrido[2,3-d]pyrimidin-4-amine], the half-inhibitory concentration (IC50) is ≤ 1 µM. As for `CC(C)COCc1nc(NCCc2cccc(C(F)(F)F)c2)c2ccc(-c3ncccc3Cl)nc2n1` [Compound 51, 7-(3-chloropyridin-2-yl)-2-(isobutoxymethyl)-N-{2-[3-(trifluoromethyl)phenyl]ethyl}pyrido[2,3-d]pyrimidin-4-amine], the half-inhibitory concentration (IC50) is ≤ 1 µM. To `CCOCc1nc(NCCc2ccccc2F)c2ccc(-c3ncccc3Cl)nc2n1` [Compound 52, 7-(3-chloropyridin-2-yl)-n-(ethoxymethyl)-N-[2-(2-fluorophenyl)ethyl]pyrido[2,3-d]pyrimidin-4-amine] belongs ≤ 1 µM; to `CCOCc1nc(NCCc2ccc(F)cc2)c2ccc(-c3ncccc3Cl)nc2n1` [Compound 53, 7-(3-chloropyridin-2-yl)-2-(ethoxymethyl)-N-[2-(4-fluorophenyl)ethyl]pyrido[2,3-d]pyrimidin-4-amine], ≤ 1 µM; to `CCOCc1nc(NCCc2ccccc2Cl)c2ccc(-c3ncccc3Cl)nc2n1` [Compound 54, N-[2-(2-chlorophenyl)ethyl]-7-(3-chloropyridin-2-yl)-2-(ethoxymethyl)pyrido[2,3-d]pyrimidin-4-amine], ≤ 1 µM. As for `CCOCc1nc(NCCc2cccc(Cl)c2)c2ccc(-c3ncccc3Cl)nc2n1` [Compound 55, N-[2-(3-chlorophenyl)ethyl]-7-(3-chloropyridin-2-yl)-2-(ethoxymethyl)pyrido[2,3-d]pyrimidin-4-amine], the IC50 was ≤ 1 µM.
